In US20240252581A1, “COMPOSITIONS AND METHODS FOR TREATING RESPIRATORY DISTRESS” (S.I.S. SHULOV INNOVATIVE SCIENCE LTD., priority 2021, published 2024):
Several values for one entry are separate records, joined by “and”; a condition that tells them apart may be missing. Equal values may be shown once. Square brackets hold non-standard residues; d marks the D form. Peptide text beside a SMILES is read from it. * marks the point of attachment. pGlu = O=C1CC[C@@H](C(=O)O)N1; Octanoyl = CCCCCCCC(=O)*

Tested on: inflammatory cytokines in BALF
Assay: LPS-induced acute lung injury / ARDS mouse model: BALF cytokine concentrations (multiplex ELISA)
Assay type: in vivo, BALB/c mice
Set-up: key to INF-γ / IL-1α / IL-5 / IL-6 / IL-10 / IL-12 / IL-17 / KC / MCP-1 / TNF-α / CXCL10 / RANTES / G-CSF / CCL3: (+) indicates activation; (−) indicates inhibition
Experimental: In order to test the efficacy of ZEP3 sodium on lung inflammation, the lipopolysaccharide (LPS)-induced acute lung injury model was used. In particular, LPS was administered intratracheally at doses of 10 or 40 mg/kg body weight (BW) corresponding to 0.2 or 0.8 mg/mouse, respectively.
ZEP3 sodium was administered by inhalation (INH) at doses of 25 or 250 mg/kg BW (0.5 or 5 mg/mouse, respectively), or intratracheally (IT) at doses of 5 or 20 mg/kg BW (0.1 or 0.4 mg/mouse, respectively) 6 hours after LPS administration and its effect was measured 72 hours following administration in the branchial alveolar fluid (BALF) using FACS instrumentation.
To detect cytokine release in lungs fluid, cytokine concentrations were assessed in BALF samples using high sensitivity multiplex ELISA assays for: IFN-γ, IL-1α, IL-5, IL-6, IL-10, IL-12 (p70), IL-17A, KC, MCP-1, TNF-α, IP-10, RANTES, G-CSF, MIP-1α and RANTES. ZEP3Na administered intratracheally at 0.1 and 0.4 mg per mouse after instillation of 0.2 mg LPS inhibited the concentration of following interleukins: IL-1α, IL-6, IL-10, IL-12, IL-17, KC, MCP-1, TNF-α and G-CSF.

[1] = Group 9: LPS 0.2 mg + ZEP3Na 0.4 mg IT, BALF, group mean
[2] = Group 9: LPS 0.2 mg + ZEP3Na 0.4 mg IT, BALF, individual mice
[3] = LPS 0.2 mg + ZEP3Na (IT) 0.1 mg, BALF
[4] = LPS 0.2 mg + ZEP3Na (IT) 0.4 mg, BALF
[5] = LPS 0.8 mg + ZEP3Na (INH) 0.5 mg, BALF
[6] = LPS 0.8 mg + ZEP3Na (INH) 5 mg, BALF
[7] = LPS 0.8 mg + ZEP3Na (IT) 0.1 mg, BALF
[8] = LPS 0.8 mg + ZEP3Na (IT) 0.4 mg, BALF

In the case of CCCCCCCC(=O)NCCCC[C@H](NC(=O)[C@H](Cc1c[nH]c2ccccc12)NC(=O)[C@H](CC(N)=O)NC(=O)[C@@H]1CCC(=O)N1)C(=O)O [ZEP3Na, pGlu-Asn-Trp-Lys(Octanoyl)-ONa] ([pGlu]NWK(Octanoyl)-OH), the “KC” value [1] is reported as 751.10 pg/mL, the “MCP-1” value [1] is reported as 180.27 pg/mL and the “G-CSF” value [2] is reported as 176.85 pg/mL and 200.57 pg/mL and 585.70 pg/mL and 211.19 pg/mL and 8.45 pg/mL and 138.72 pg/mL and 227.63 pg/mL. For the same compound, the “G-CSF (pg/ml)” value [2] was “undetected”, the “IL-12 (p70)” value [2] was 408.22 pg/ml and 471.74 pg/ml and 15.41 pg/ml (2×) and 262.69 pg/ml and 11.53 pg/ml and 8.09 pg/ml and 115.45 pg/ml and 140.60 pg/ml and the “IL-17A” value [2] was 386.05 pg/mL and 1361.97 pg/mL and 15.26 pg/mL and 3386.75 pg/mL and 22.20 pg/mL and 4.57 pg/mL and 2.99 pg/mL and 21.13 pg/mL and 55.67 pg/mL. The “KC” value [2] was 1154.03 pg/mL and 1559.44 pg/mL and 1143.16 pg/mL and 1153.90 pg/mL and 127.59 pg/mL and 63.82 pg/mL and 75.31 pg/mL and 656.41 pg/mL and 826.24 pg/mL, the “MCP-1” value [2] was 240.17 pg/mL and 115.81 pg/mL and 823.17 pg/mL and 151.55 pg/mL and 14.15 pg/mL and 102.63 pg/mL and 174.95 pg/mL and the “MCP-1 (pg/ml)” value [2] was “undetected”. The CXCL10 [3] was “−”, the G-CSF [3] was “−” and the IL-1α [3] was “−”. The IL-6 [3] was “−”, the IL-10 [3] was “−” and the IL-12 [3] was “−”. The IL-17 [3] was “−”, the KC [3] was “−” and the MCP-1 [3] was “−”. The TNF-α [3] was “−”, the CXCL10 [4] was “−” and the G-CSF [4] was “−”. The IL-1α [4] was “−”, the IL-6 [4] was “−” and the IL-10 [4] was “−”. For the same compound, the IL-12 [4] was “−”, the IL-17 [4] was “−” and the KC [4] was “−”. For the same compound, the MCP-1 [4] was “−”, the TNF-α [4] was “−” and the CCL3 [5] was “−”. The CXCL10 [5] was “−”, the G-CSF [5] was “−” and the IL-1α [5] was “−”. For the same compound, the IL-5 [5] was “−”, the IL-6 [5] was “−” and the IL-10 [5] was “+”. For the same compound, the IL-12 [5] was “−”, the IL-17 [5] was “−” and the INF-γ [5] was “−”. The KC [5] was “−”, the MCP-1 [5] was “−” and the RANTES [5] was “−”. For the same compound, the TNF-α [5] was “−”, the CCL3 [6] was “−” and the CXCL10 [6] was “−”. For the same compound, the G-CSF [6] was “−”, the IL-1α [6] was “−” and the IL-5 [6] was “−”. The IL-6 [6] was “−”, the IL-10 [6] was “+” and the IL-12 [6] was “−”. For the same compound, the IL-17 [6] was “−”, the INF-γ [6] was “−” and the KC [6] was “−”. For the same compound, the MCP-1 [6] was “−”, the RANTES [6] was “−” and the TNF-α [6] was “−”. For the same compound, the IL-12 [7] was “−”, the TNF-α [7] was “−” and the IL-12 [8] was “−”. For the same compound, the TNF-α [8] was “−”, the “levels of INF-γ, IL-1α, IL-5, IL-6, IL-12, IL-17, KC, MCP-1, TNF-α, CXCL10, RANTES, G-CSF, and CCL3” value (administered by inhalation following LPS instillation) was “significantly inhibited the expression and reduced the levels” and the “levels of IL-1α, IL-6, IL-10, IL-12, IL-17, KC, MCP-1, TNF-α, CXCL10, and G-CSF” value (administered intratracheally following LPS instillation) was “significantly inhibited the expression and reduced the levels”. The “concentration of IL-1α, IL-6, IL-10, IL-12, IL-17, KC, MCP-1, TNF-α and G-CSF” value (intratracheally at 0.1 and 0.4 mg per mouse after instillation of 0.2 mg LPS, BALF) was “inhibited”.
